{"source": "patent US20160015644A1", "about": "“GASTRO-RETENTIVE SUSTAINED-RELEASE ORAL DOSAGE FORM OF A BILE ACID SEQUESTRANT” (IRONWOOD PHARMACEUTICALS, INC., priority 2013, published 2016)", "origin": "cited, not measured here", "key": {"gastric proton pump [1]": {"target": "gastric proton pump (Homo sapiens, UniProt P20648)", "sequence (P20648 whole entry)": "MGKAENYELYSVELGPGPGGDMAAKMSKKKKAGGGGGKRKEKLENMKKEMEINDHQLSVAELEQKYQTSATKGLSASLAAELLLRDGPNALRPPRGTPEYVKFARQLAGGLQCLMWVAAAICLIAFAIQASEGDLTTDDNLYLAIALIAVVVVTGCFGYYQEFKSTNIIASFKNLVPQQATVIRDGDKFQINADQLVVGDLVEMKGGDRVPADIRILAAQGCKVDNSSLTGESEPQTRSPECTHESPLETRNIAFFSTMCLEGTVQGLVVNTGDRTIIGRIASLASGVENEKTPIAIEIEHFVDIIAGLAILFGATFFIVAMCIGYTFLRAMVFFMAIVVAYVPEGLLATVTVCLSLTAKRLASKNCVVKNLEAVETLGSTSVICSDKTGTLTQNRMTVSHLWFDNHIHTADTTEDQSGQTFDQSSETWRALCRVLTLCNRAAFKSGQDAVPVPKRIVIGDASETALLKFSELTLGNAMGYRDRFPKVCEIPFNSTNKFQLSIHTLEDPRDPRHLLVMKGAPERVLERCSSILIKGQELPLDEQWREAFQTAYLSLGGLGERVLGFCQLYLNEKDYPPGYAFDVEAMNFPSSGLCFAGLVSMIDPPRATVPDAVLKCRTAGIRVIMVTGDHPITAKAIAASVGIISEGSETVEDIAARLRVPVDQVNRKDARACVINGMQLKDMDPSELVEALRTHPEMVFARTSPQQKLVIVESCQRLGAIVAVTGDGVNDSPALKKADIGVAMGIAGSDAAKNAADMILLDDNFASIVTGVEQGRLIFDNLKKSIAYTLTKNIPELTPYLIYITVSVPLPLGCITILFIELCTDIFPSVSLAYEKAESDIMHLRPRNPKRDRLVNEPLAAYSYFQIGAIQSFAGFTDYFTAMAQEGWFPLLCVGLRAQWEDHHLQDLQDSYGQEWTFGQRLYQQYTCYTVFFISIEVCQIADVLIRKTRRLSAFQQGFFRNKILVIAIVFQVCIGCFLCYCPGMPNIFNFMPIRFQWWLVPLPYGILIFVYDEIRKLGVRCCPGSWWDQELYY", "sequence (P51164 whole entry partner)": "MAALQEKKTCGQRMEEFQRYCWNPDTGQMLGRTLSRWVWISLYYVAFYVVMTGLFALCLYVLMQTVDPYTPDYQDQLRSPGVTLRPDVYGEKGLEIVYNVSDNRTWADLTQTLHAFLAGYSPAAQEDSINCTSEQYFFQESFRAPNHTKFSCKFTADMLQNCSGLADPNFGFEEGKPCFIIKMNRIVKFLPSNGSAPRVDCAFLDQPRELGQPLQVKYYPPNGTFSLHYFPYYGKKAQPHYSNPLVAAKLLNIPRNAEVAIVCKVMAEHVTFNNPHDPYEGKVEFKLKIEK"}, "gastric proton pump [2]": {"target": "gastric proton pump (Canis lupus familiaris, UniProt P50996)", "sequence (P50996 whole entry)": "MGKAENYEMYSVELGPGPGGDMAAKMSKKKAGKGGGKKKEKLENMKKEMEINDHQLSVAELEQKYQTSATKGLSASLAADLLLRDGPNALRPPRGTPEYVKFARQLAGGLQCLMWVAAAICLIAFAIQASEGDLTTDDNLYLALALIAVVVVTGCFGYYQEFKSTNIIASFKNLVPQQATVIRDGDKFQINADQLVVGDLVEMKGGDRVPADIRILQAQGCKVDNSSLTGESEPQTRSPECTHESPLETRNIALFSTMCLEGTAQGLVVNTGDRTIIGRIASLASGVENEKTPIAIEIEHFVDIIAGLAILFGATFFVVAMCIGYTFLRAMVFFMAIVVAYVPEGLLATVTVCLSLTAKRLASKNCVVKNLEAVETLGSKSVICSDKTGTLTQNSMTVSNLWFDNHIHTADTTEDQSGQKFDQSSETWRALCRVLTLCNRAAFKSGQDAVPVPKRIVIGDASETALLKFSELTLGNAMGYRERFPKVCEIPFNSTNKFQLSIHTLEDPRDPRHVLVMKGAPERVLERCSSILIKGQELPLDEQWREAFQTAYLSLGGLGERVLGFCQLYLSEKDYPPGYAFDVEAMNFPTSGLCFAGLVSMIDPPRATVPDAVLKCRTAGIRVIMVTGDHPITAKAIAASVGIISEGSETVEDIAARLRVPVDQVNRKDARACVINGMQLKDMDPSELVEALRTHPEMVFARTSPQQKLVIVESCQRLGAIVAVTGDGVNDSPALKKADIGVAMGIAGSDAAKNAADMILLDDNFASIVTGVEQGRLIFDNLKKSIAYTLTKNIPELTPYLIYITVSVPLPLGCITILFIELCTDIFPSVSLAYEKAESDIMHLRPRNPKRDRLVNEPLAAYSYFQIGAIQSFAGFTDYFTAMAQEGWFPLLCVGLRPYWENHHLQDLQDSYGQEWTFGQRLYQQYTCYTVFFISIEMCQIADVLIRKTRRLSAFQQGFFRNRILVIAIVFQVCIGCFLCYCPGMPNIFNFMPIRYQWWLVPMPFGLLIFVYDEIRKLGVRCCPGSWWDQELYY", "sequence (P33704 whole entry partner)": "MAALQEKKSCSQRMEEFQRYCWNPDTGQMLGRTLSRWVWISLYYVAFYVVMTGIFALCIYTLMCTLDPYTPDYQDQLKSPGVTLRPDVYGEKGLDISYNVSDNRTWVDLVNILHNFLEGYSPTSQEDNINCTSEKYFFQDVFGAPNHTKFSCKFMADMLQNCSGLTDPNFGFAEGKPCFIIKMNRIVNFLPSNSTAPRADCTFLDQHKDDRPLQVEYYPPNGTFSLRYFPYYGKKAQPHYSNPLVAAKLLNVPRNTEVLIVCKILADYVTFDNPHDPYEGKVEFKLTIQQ", "settings": "conscious, pentagastrin-stimulated fistula dog"}}}
{"smiles": "COC(=O)Nc1cccc(C)c1CNc1cccn2c(C)c(C)nc12", "note": "[BY841, (8-(2-methoxcarbonylamino-6-methyl-phenylmethylamino)-2,3-dimethyl-imida [1,2-a]-pyridine)]", "values": [{"measurement": "effectiveness in comparison with the standard dose of omeprazole", "setting": "gastric proton pump [1]; 50 mg or 100 mg twice daily, Day one of treatment", "result": "markedly more effective"}, {"measurement": "potency in comparison with the standard dose of omeprazole", "setting": "gastric proton pump [1]; 50 mg or 100 mg twice daily, following repeated daily administration", "result": "at least as potent as omeprazole"}, {"measurement": "intragastric pH", "setting": "gastric proton pump [1]; single 50 mg oral dose", "result": "about 6"}, {"measurement": "intragastric pH", "setting": "gastric proton pump [2]", "result": "≤ 6"}, {"measurement": "comparison with ranitidine and omeprazole", "setting": "gastric proton pump [2]; elevation of intragastric pH", "result": "superior to both ranitidine and omeprazole"}]}
